Where a name gives a salt, the structure may show the parent alone.
How the values were obtained:
[1] = test system: HCT116 FOP control reporter cell line; experiment: HCT116 FOPFlash control reporter assay (FOP control vector, non-functional TCF elements); type: cell-based; settings: HCT116 FOP control reporter cells, 36 hours incubation, luciferase expression
Description: In a parallel approach, HCT116 cells were cotransfected with the FOP control vector and pcDNA3. The FOP vector is identical to the TOP construct, but it contains instead of functional TCF elements a randomized, non-functional sequence. For this transfection a stable transfected cell line was generated as well.

[2] = test system: constitutive active colorectal cancer cell (CRC) Wnt pathway; experiment: HCT116 TOPFlash cellular reporter assay (Super TopFlash luciferase), constitutive active Wnt pathway; type: cell-based; settings: HCT116 TOP reporter cells, 36 hours incubation, luciferase expression
Procedure: In order to discover and characterize small molecules which inhibit the constitutive active colorectal cancer cell (CRC) Wnt pathway, a cellular reporter assay was employed. […] Stable transfectants were generated by cotransfection with pcDNA3 and selection of stable transfected cells with 1 mg/ml G418.

For `CN1CCN(CC(=O)Nc2cc(C(=O)Nc3nnc(-c4ccccc4F)s3)ccc2OC(F)(F)F)CC1` [Example 150, N-[5-(2-fluorophenyl)-1,3,4-thiadiazol-2-yl]-3-{[(4-methylpiperazin-1-yl)acetyl]amino}-4-(trifluoromethoxy)benzamide], the IC50 ([1]; Homo sapiens, HCT-116, 36 h) was ≥ 50 µM and the IC50 ([2]; Homo sapiens, HCT-116, 36 h) was 0.076 µM.

With `CN1CCN(CC(=O)Nc2cc(C(=O)Nc3nnc(-c4cccc(F)c4)s3)ccc2OC(F)(F)F)CC1` [Example 152, N-[5-(3-fluorophenyl)-1,3,4-thiadiazol-2-yl]-3-{[(4-methylpiperazin-1-yl)acetyl]amino}-4-(trifluoromethoxy)benzamide] the IC50 ([1]; Homo sapiens, HCT-116, 36 h) was ≥ 50 µM and the IC50 ([2]; Homo sapiens, HCT-116, 36 h) was 0.2 µM.

`O=C(CN1CCOCC1)Nc1cc(C(=O)Nc2nnc(-c3cccc(F)c3)s2)ccc1OC(F)(F)F` [Example 153, N-[5-(3-fluorophenyl)-1,3,4-thiadiazol-2-yl]-3-[(morpholin-4-ylacetyl)amino]-4-(trifluoromethoxy)benzamide] showed an IC50 ([1]; Homo sapiens, HCT-116, 36 h) of 30 µM and an IC50 ([2]; Homo sapiens, HCT-116, 36 h) of 0.132 µM.

For `O=C(CN1CCOCC1)Nc1cc(C(=O)Nc2nnc(-c3cccc(Cl)c3)s2)ccc1OC(F)(F)F` [Example 154, N-[5-(3-chlorophenyl)-1,3,4-thiadiazol-2-yl]-3-[(morpholin-4-ylacetyl)amino]-4-(trifluoromethoxy)benzamide], the IC50 ([1]; Homo sapiens, HCT-116, 36 h) was ≥ 50 µM and the IC50 ([2]; Homo sapiens, HCT-116, 36 h) was 0.42 µM.

With `COCCNC(=O)c1ccc(C(=O)Nc2nnc(-c3ccccc3)s2)cc1NC(=O)CN1CCN(C)CC1` [Example 155, N^1-(2-methoxyethyl)-2-{[(4-methylpiperazin-1-yl)acetyl]amino}-N^4-(5-phenyl-1,3,4-thiadiazol-2-yl)terephthalamide] the IC50 ([1]; Homo sapiens, HCT-116, 36 h) was 32.5 µM and the IC50 ([2]; Homo sapiens, HCT-116, 36 h) was 0.592 µM.

With `COCCNC(=O)c1ccc(C(=O)Nc2nnc(-c3ccccc3)s2)cc1NC(=O)CN1CCOCC1` [Example 156, N^1-(2-methoxyethyl)-2-[(morpholin-4-ylacetyl)amino]-N^4-(5-phenyl-1,3,4-thiadiazol-2-yl)terephthalamide] the IC50 ([1]; Homo sapiens, HCT-116, 36 h) was ≥ 50 µM and the IC50 ([2]; Homo sapiens, HCT-116, 36 h) was 0.542 µM.

In the case of `Cc1ccc(C(=O)Nc2nnc(-c3ccccc3)s2)cc1NC(=O)C1(N2CCN(C)CC2)CC1` [Example 157, 4-methyl-3-({[1-(4-methylpiperazin-1-yl)cyclopropyl]carbonyl}amino)-N-(5-phenyl-1,3,4-thiadiazol-2-yl)benzamide hydrochloride (1:1)], the IC50 ([1]; Homo sapiens, HCT-116, 36 h) is reported as ≥ 50 µM and the IC50 ([2]; Homo sapiens, HCT-116, 36 h) is reported as 0.0966 µM.

`CN1CCN(CC(=O)Nc2cc(C(=O)Nc3ccc(-c4ccccc4)cn3)ccc2OC(F)(F)F)CC1` [Example 158, 3-{[(4-methylpiperazin-1-yl)acetyl]amino}-N-(5-phenylpyridin-2-yl)-4-(trifluoromethoxy)benzamide] gave an IC50 ([1]; Homo sapiens, HCT-116, 36 h) of 21.8 µM and an IC50 ([2]; Homo sapiens, HCT-116, 36 h) of 0.0736 µM.

`CC1CN(CC(=O)Nc2cc(C(=O)Nc3nnc(-c4ccccc4)s3)ccc2OC(F)(F)F)CCN1C` (centres unmarked) [Example 160, 3-{[(3,4-dimethylpiperazin-1-yl)acetyl]amino}-N-(5-phenyl-1,3,4-thiadiazol-2-yl)-4-(trifluoromethoxy)benzamide] gave an IC50 ([1]; Homo sapiens, HCT-116, 36 h) of 28 µM and an IC50 ([2]; Homo sapiens, HCT-116, 36 h) of 0.948 µM.

In the case of `C[C@@H]1CN(C)CCN1CC(=O)Nc1cc(C(=O)Nc2ccc(-c3ccccc3F)nc2)ccc1OC(F)(F)F` [Example 161, 3-({[(2R)-2,4-dimethylpiperazin-1-yl]acetyl}amino)-N-[6-(2-fluorophenyl)pyridin-3-yl]-4-(trifluoromethoxy)benzamide], the IC50 ([1]; Homo sapiens, HCT-116, 36 h) is reported as 10 µM and the IC50 ([2]; Homo sapiens, HCT-116, 36 h) is reported as 0.325 µM.

For `C[C@H]1CN(C)CCN1CC(=O)Nc1cc(C(=O)Nc2ccc(-c3ccccc3F)nc2)ccc1OC(F)(F)F` [Example 162, 3-({[(2S)-2,4-dimethylpiperazin-1-yl]acetyl}amino)-N-[6-(2-fluorophenyl)pyridin-3-yl]-4-(trifluoromethoxy)benzamide], the IC50 ([1]; Homo sapiens, HCT-116, 36 h) was ≥ 50 µM and the IC50 ([2]; Homo sapiens, HCT-116, 36 h) was 0.0855 µM.

In the case of `C[C@H]1CN(CC(=O)Nc2cc(C(=O)Nc3ccc(-c4ccccc4F)nc3)ccc2OC(F)(F)F)CCN1C` [Example 163, 3-({[(3S)-3,4-dimethylpiperazin-1-yl]acetyl}amino)-N-[6-(2-fluorophenyl)pyridin-3-yl]-4-(trifluoromethoxy)benzamide], the IC50 ([1]; Homo sapiens, HCT-116, 36 h) is reported as ≥ 50 µM and the IC50 ([2]; Homo sapiens, HCT-116, 36 h) is reported as 0.057 µM.

In the case of `C[C@@H]1CN(CC(=O)Nc2cc(C(=O)Nc3ccc(-c4ccccc4F)nc3)ccc2OC(F)(F)F)CCN1C` [Example 164, 3-({[(3R)-3,4-dimethylpiperazin-1-yl]acetyl}amino)-N-[6-(2-fluorophenyl)pyridin-3-yl]-4-(trifluoromethoxy)benzamide], the IC50 ([1]; Homo sapiens, HCT-116, 36 h) is reported as ≥ 50 µM and the IC50 ([2]; Homo sapiens, HCT-116, 36 h) is reported as 0.22 µM.

`CC1CN(C)CCN1CC(=O)Nc1cc(C(=O)Nc2ccc(-c3ccccc3F)nc2)ccc1OC(F)(F)F` (centres unmarked) [Example 165, 3-{[(2,4-dimethylpiperazin-1-yl)acetyl]amino}-N-[6-(2-fluorophenyl)pyridin-3-yl]-4-(trifluoromethoxy)benzamide] gave an IC50 ([1]; Homo sapiens, HCT-116, 36 h) of 7.2 µM and an IC50 ([2]; Homo sapiens, HCT-116, 36 h) of 0.051 µM.

`CN1C2CCC1CN(CC(=O)Nc1cc(C(=O)Nc3ccc(-c4ccccc4F)nc3)ccc1OC(F)(F)F)C2` [Example 166, N-[6-(2-fluorophenyl)pyridin-3-yl]-3-{[(8-methyl-3,8-diazabicyclo[3.2.1]oct-3-yl)acetyl]amino}-4-(trifluoromethoxy)benzamide] showed an IC50 ([1]; Homo sapiens, HCT-116, 36 h) of 3.9 µM and an IC50 ([2]; Homo sapiens, HCT-116, 36 h) of 0.148 µM.

With `CC1CN(C)CCN1CC(=O)Nc1cc(C(=O)Nc2nnc(-c3ccccc3)s2)ccc1OC(F)(F)F` (centres unmarked) [Example 167, 3-{[(2,4-dimethylpiperazin-1-yl)acetyl]amino}-N-(5-phenyl-1,3,4-thiadiazol-2-yl)-4-(trifluoromethoxy)benzamide] the IC50 ([1]; Homo sapiens, HCT-116, 36 h) was ≥ 50 µM and the IC50 ([2]; Homo sapiens, HCT-116, 36 h) was 0.685 µM.

`CN1CCCN(CC(=O)Nc2cc(C(=O)Nc3nnc(-c4ccccc4)s3)ccc2OC(F)(F)F)CC1` [Example 168, 3-{[(4-methyl-1,4-diazepan-1-yl)acetyl]amino}-N-(5-phenyl-1,3,4-thiadiazol-2-yl)-4-(trifluoromethoxy)benzamide] was tested, and the IC50 ([1]; Homo sapiens, HCT-116, 36 h) was 12 µM and the IC50 ([2]; Homo sapiens, HCT-116, 36 h) was 1.08 µM.

`O=C(CN1CCCOCC1)Nc1cc(C(=O)Nc2nnc(-c3ccccc3)s2)ccc1OC(F)(F)F` [Example 169, 3-[(1,4-oxazepan-4-ylacetyl)amino]-N-(5-phenyl-1,3,4-thiadiazol-2-yl)-4-(trifluoromethoxy)benzamide] was tested, and the IC50 ([1]; Homo sapiens, HCT-116, 36 h) was ≥ 50 µM and the IC50 ([2]; Homo sapiens, HCT-116, 36 h) was 0.066 µM.

For `O=C(CN1CCOCC1)Nc1cc(C(=O)Nc2nnc(-c3ccccc3)s2)ccc1OC1CC1` [Example 170, 4-(cyclopropyloxy)-3-[(morpholin-4-ylacetyl)amino]-N-(5-phenyl-1,3,4-thiadiazol-2-yl)benzamide], the IC50 ([1]; Homo sapiens, HCT-116, 36 h) was ≥ 50 µM and the IC50 ([2]; Homo sapiens, HCT-116, 36 h) was 0.118 µM.

`CN1CCN(C2(C(=O)Nc3cc(C(=O)Nc4nnc(-c5ccccc5)s4)ccc3OC3CC3)CC2)CC1` [Example 171, 4-(cyclopropyloxy)-3-({[1-(4-methylpiperazin-1-yl)cyclopropyl]carbonyl}amino)-N-(5-phenyl-1,3,4-thiadiazol-2-yl)benzamide] was tested, and the IC50 ([1]; Homo sapiens, HCT-116, 36 h) was ≥ 50 µM and the IC50 ([2]; Homo sapiens, HCT-116, 36 h) was 0.102 µM.

With `CCN1CCN(CC(=O)Nc2cc(C(=O)Nc3nnc(-c4ccccc4)s3)ccc2OC(F)(F)F)CC1` [Example 172, 3-{[(4-ethylpiperazin-1-yl)acetyl]amino}-N-(5-phenyl-1,3,4-thiadiazol-2-yl)-4-(trifluoromethoxy)benzamide] the IC50 ([1]; Homo sapiens, HCT-116, 36 h) was ≥ 50 µM and the IC50 ([2]; Homo sapiens, HCT-116, 36 h) was 0.855 µM.

For `CN1CCN(CC(=O)Nc2cc(C(=O)Nc3nnc(-c4ccccc4)s3)ccc2Cl)CC1` [Example 173, 4-chloro-3-{[(4-methylpiperazin-1-yl)acetyl]amino}-N-(5-phenyl-1,3,4-thiadiazol-2-yl)benzamide], the IC50 ([1]; Homo sapiens, HCT-116, 36 h) was ≥ 50 µM and the IC50 ([2]; Homo sapiens, HCT-116, 36 h) was 0.52 µM.

`CN1CCN(CC(=O)Nc2cc(C(=O)Nc3nnc(-c4ccccc4)s3)ccc2C#N)CC1` [Example 174, 4-cyano-3-{[(4-methylpiperazin-1-yl)acetyl]amino}-N-(5-phenyl-1,3,4-thiadiazol-2-yl)benzamide] was tested, and the IC50 ([1]; Homo sapiens, HCT-116, 36 h) was ≥ 50 µM and the IC50 ([2]; Homo sapiens, HCT-116, 36 h) was 3.8 µM.

Work on `Cc1ccccc1-c1nnc(NC(=O)c2ccc(OC(F)F)c(NC(=O)CN3CCN(C)CC3)c2)s1` [Example 175, 4-(difluoromethoxy)-N-[5-(2-methylphenyl)-1,3,4-thiadiazol-2-yl]-3-{[(4-methylpiperazin-1-yl)acetyl]amino}benzamide] yielded an IC50 ([1]; Homo sapiens, HCT-116, 36 h) of 7.1 µM and an IC50 ([2]; Homo sapiens, HCT-116, 36 h) of 0.215 µM.

In the case of `COCc1ccc(C(=O)Nc2nnc(-c3ccccc3C)s2)cc1NC(=O)CN1CCOCC1` [Example 176, 4-(methoxymethyl)-N-[5-(2-methylphenyl)-1,3,4-thiadiazol-2-yl]-3-[(morpholin-4-ylacetyl)amino]benzamide], the IC50 ([1]; Homo sapiens, HCT-116, 36 h) is reported as ≥ 50 µM and the IC50 ([2]; Homo sapiens, HCT-116, 36 h) is reported as 0.315 µM.

`COCc1ccc(C(=O)Nc2nnc(-c3ccccc3C)s2)cc1NC(=O)CN1CCN(C)CC1` [Example 177, 4-(methoxymethyl)-N-[5-(2-methylphenyl)-1,3,4-thiadiazol-2-yl]-3-{[(4-methylpiperazin-1-yl)acetyl]amino}benzamide hydrochloride (1:1)] gave an IC50 ([1]; Homo sapiens, HCT-116, 36 h) of 35 µM and an IC50 ([2]; Homo sapiens, HCT-116, 36 h) of 0.46 µM.

Molecule `CC(C(=O)Nc1cc(C(=O)Nc2ccc(-c3cc(F)cc(F)c3)nc2)ccc1OC(F)(F)F)N1CC2CCC(C1)O2` (centres unmarked) [Example 178, N-[6-(3,5-difluorophenyl)pyridin-3-yl]-3-{[2-(8-oxa-3-azabicyclo[3.2.1]oct-3-yl)propanoyl]amino}-4-(trifluoromethoxy)benzamide] has an IC50 [1] of 3.8 µM and an IC50 [2] of 0.0424 µM.

In the case of `CN(C)C1(C(=O)Nc2cc(C(=O)Nc3ccc(-c4ccccc4F)nc3)ccc2OC(F)(F)F)CC1` [Example 179, 3-({[1-(dimethylamino)cyclopropyl]carbonyl}amino)-N-[6-(2-fluorophenyl)pyridin-3-yl]-4-(trifluoromethoxy)benzamide], the IC50 ([1]; Homo sapiens, HCT-116, 36 h) is reported as ≥ 50 µM and the IC50 ([2]; Homo sapiens, HCT-116, 36 h) is reported as 0.362 µM.
